The text below walks through data of US8642028B2, “Recombinant adenoviruses encoding the specific iodine transporter (NIS)” (Aventis Pharma S.A., priority 1999, dated 2014).

Assay [1] concerns the target T1, NIS (Rattus norvegicus, UniProt Q63008).
T1 construct: expressed in transfected cells; host or cells: SiHa human epithelial tumor cells (ATCC HTB-35) infected with Ad-NIS at a multiplicity of infection of 10
T1 sequence (Q63008 1-618): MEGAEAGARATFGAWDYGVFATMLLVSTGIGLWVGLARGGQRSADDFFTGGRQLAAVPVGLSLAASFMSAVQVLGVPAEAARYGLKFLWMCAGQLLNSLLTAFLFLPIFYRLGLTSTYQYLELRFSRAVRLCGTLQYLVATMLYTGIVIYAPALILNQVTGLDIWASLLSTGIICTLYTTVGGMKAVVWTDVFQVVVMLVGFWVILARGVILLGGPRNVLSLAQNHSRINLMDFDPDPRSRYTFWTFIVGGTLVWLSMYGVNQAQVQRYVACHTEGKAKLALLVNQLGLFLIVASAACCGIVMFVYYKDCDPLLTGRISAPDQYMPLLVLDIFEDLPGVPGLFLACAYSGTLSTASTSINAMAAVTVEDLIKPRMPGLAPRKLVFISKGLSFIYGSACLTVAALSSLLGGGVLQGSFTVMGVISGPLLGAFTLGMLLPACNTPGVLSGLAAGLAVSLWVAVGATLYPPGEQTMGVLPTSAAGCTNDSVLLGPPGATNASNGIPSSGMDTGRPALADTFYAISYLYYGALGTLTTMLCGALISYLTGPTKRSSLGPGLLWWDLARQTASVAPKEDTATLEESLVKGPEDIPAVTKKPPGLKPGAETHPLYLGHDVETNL
Briefly: Inhibition by perchlorate of iodine transport by NIS in SiHa cells infected with Ad-NIS. It counts as cell-based. On the procedure:
(§1) The cells are infected with the Ad-NIS vector at a multiplicity of infection of 10. The capacity of the cells to capture iodine is tested 28 to 29 h after infection according to the Weiss et al. method [Endocrinology (1984) 114: 1090-1098]. The infected cells are washed with HBSS buffer and placed in contact for the time indicated in FIG. 3 with 0.5 ml of HBSS buffer containing 0.1 μCi of iodine-125. At the end of the contact time, the cells are washed once with cold HBSS buffer and then incubated for 20 min with cold ethanol. The quantity of iodine-125 captured by the cells is determined by assaying the radioactivity of the ethanol, with a gamma counter.
(§2) The specific inhibition of iodine transport by NIS was tested in the presence of perchlorate. NaCIO4 was added to the HBSS buffer containing iodine-125 so as to obtain final concentrations of 30, 300 and 3000 μM. The contact time between the cells and the iodine-125 is 15 minutes. The results are expressed as number of counts for the same number of cells.

In assay [2] the target is T1, NIS. Briefly: Inhibition by perchlorate of iodine transport by NIS in FRTL-5 cells. It counts as cell-based. How it is done:
as §1, §2

Take `[O-][Cl+3]([O-])([O-])O` [NaCIO4]: the “inhibitor concentration required for the same level of inhibition, SiHa cells relative to FRTL-5 cells” value in assay [1] (SiHa cells infected with Ad-NIS versus FRTL-5 cells) was determined as 10 times. Further, the inhibition at 30 µM is 40% in assay [1] (SiHa cells infected with Ad-NIS, 30 μM NaCIO4, 15 min contact, read-out: inhibition of the fixing of iodine) and over 90% in assay [2] (FRTL-5, FRTL-5 cells, 30 μM NaCIO4, 15 min contact with iodine-125, read-out: inhibition of the fixing of iodine). Moreover, the inhibition at 300 µM in assay [1] (SiHa cells infected with Ad-NIS, 300 μM NaCIO4, 15 min contact, read-out: inhibition of the fixing of iodine) was 92%. For the same compound, the inhibition at 3000 µM in assay [1] (SiHa cells infected with Ad-NIS, 3 mM NaCIO4, 15 min contact, read-out: inhibition of the fixing of iodine) came out at 98%. Further, in assay [2] (FRTL-5 cells, high NaCIO4 concentrations, 15 min contact with iodine-125), the “inhibition of the fixing of iodine” value came out at 95%.
